Experimental findings from ChEMBL document CHEMBL5360538, “Recent updates on 1,2,3-triazole-containing hybrids with in vivo therapeutic potential against cancers: A mini-review” (Eur J Med Chem, 2023) are described below.

The test system of data set [1] is OC-314. In words: Antiproliferative activity against human OC-314 cells assessed as reduction in cell viability by MTT assay. It counts as functional, cell-based. Background: Formazan colour is commonly taken as a measure of viable cells.
For data set [2], the system named is OVCAR-8. In words: Antitumor activity against human OVCAR-8 cells xenografted in nude mouse assessed as inhibition of tumor growth at 100 mg/kg, IG administered daily for 21 days relative to control. It counts as functional. The settings on record: OVCAR-8, po, 504 h, time 21 day.
Data set [3] concerns OVCAR-8. Description: Antiproliferative activity against human OVCAR-8 cells assessed as reduction in cell viability by MTT assay. It counts as functional, cell-based.
Data set [4] has as its system Caov-3 cell line. In words: Antiproliferative activity against human Caov-3 cells assessed as reduction in cell viability by MTT assay. It counts as functional, cell-based.
The subject of data set [5] is SK-OV-3. In words: Antiproliferative activity against human SK-OV-3 cells assessed as reduction in cell viability by MTT assay. It counts as functional, cell-based.
The nature of data set [6]: Elimination half life in Albino mouse plasma at 1.0 mg/kg, iv. It is filed as ADME, organism-based. The settings on record: read-out: beta t1/2 (converted).
The test system of data set [7] is MDA-MB-231. Description: Antiproliferative activity against drug-sensitive human MDA-MB-231 cells assessed as inhibition of cell growth by MTT assay. It is filed as functional, cell-based.
In data set [8] the test system is BT-474. Description: Antiproliferative activity against drug-sensitive human BT-474 cells assessed as inhibition of cell growth by MTT assay. It counts as functional, cell-based.
For data set [9], the system named is MCF7. In words: Antitumor activity against human MCF7 cells xenografted in mouse assessed as tumor growth inhibition by measuring T/C ratio at 25 mg/kg, iv. It is filed as functional. (In xenograft studies the graft and the host belong to different species.)
A short description of data set [10]: Plasma clearance in Albino mouse at 1.0 mg/kg, iv. It counts as ADME, organism-based.
The nature of data set [11]: AUC(0 to t) in Albino mouse at 1.0 mg/kg, iv. It is filed as ADME, organism-based. Details: dose 1 mg/kg, route iv. Particulars: in vivo.
Data set [12] in a line: Antiproliferative activity against human Trastuzumab-resistant BT-474 cells assessed as inhibition of cell growth by MTT assay. It is filed as functional, cell-based, Trastuzumab-resistant BT-474 cell.
Data set [13] has as its system MCF7. In words: Antiproliferative activity against drug-sensitive human MCF7 cells assessed as inhibition of cell growth by MTT assay. It is filed as functional, cell-based.
Data set [14] deals with SK-BR-3. Description: Antiproliferative activity against drug-sensitive human SK-BR-3 cells assessed as inhibition of cell growth by MTT assay. It counts as functional, cell-based.
The nature of data set [15]: Antiproliferative activity against human Tamoxifen-resistant MCF7 cells assessed as inhibition of cell growth by MTT assay. It is filed as functional, cell-based.
In data set [16] the test system is KYSE-450. In words: Antitumor activity against human KYSE-450 cells xenografted in nu/nu nude mouse model assessed as inhibition of tumor growth at 25 mg/kg, ip administered every day for 15 days relative to control. The settings on record: KYSE-450, 360 h, time 15 day. It counts as functional.
Data set [17] concerns NCI-H1650. In words: Antiproliferative activity against drug-sensitive human NCI-H1650 cells assessed as inhibition of cell growth incubated for 48 hrs by MTT assay. It is filed as functional, cell-based. Particulars: NCI-H1650, 48 h, pooled result: one value given for 9 cell lines, strains, targets or settings.
Data set [18] deals with MDA-MB-231. Description: Antiproliferative activity against human MDA-MB-231 cells assessed as reduction in cell viability by MTS assay. It counts as functional, cell-based.
Data set [19] has as its system NCI-H211. Description: Antiproliferative activity against human NCI-H211 cells assessed as reduction in cell viability by MTS assay. It counts as functional, cell-based.
Data set [20] is described as follows: Inhibition of Rac activation in human MDA-MB-231 cells treated for 24 hrs by Western blot analysis. It is filed as cell-based. A general note: Immunoblotting shows a protein as a band on a membrane.
The subject of data set [21] is MDA-MB-435. Description: Antitumor activity against GFP tagged bone metastatic variant of human MDA-MB-435 cells xenografted in athymic nu/nu mouse assessed as reduction in tumor growth at 1 mg/kg, ip administered thrice a week for 65 days relative to control. It is filed as functional. The settings on record: time 65 day. Also noted: scale not given: the % may be the effect or the level left.

Data set [22] has as its system MDA-MB-435. In words: Antitumor activity against GFP tagged bone metastatic variant of human MDA-MB-435 cells xenografted in athymic nu/nu mouse assessed as reduction in tumor growth at 10 mg/kg, ip administered thrice a week for 65 days relative to control. It is filed as functional. Also noted: scale not given: the % may be the effect or the level left. Particulars: time 65 day.

Data set [23] concerns MDA-MB-231. In words: Antiproliferative activity against human MDA-MB-231 cells assessed as inhibition of cell growth incubated for 120 hrs by MTT assay. It is filed as functional.
Data set [24] deals with MDA-MB-231. In words: Antiproliferative activity against human MDA-MB-231 cells assessed as inhibition of cell growth incubated for 48 hrs by MTT assay. It counts as functional, cell-based. Particulars: MDA-MB-231, 48 h.
The subject of data set [25] is Ehrlich. Description: Antitumor activity against mouse EAC cells implanted in Swiss albino mouse assessed as tumor growth inhibition at 5.0 mg/kg, ip administered alternate days for 10 days relative to control. It counts as functional. The settings on record: 240 h, time 10 day, read-out: TGI.
The subject of data set [26] is ECa-109 cell line. Description: Potency index, ratio of 5-fluorouracil IC50 to test compound IC50 for antiproliferative activity against human EC109 cells assessed as inhibition of cell growth incubated for 72 hrs by MTT assay. It is filed as functional.
The test system of data set [27] is TE-1. In words: Potency index, ratio of 5-fluorouracil IC50 to test compound IC50 for antiproliferative activity against human TE-1 cells assessed as inhibition of cell growth incubated for 72 hrs by MTT assay. It counts as functional.
Data set [28] has as its system KYSE-510. Description: Potency index, ratio of 5-fluorouracil IC50 to test compound IC50 for antiproliferative activity against human KYSE-510 cells assessed as inhibition of cell growth incubated for 72 hrs by MTT assay. It is filed as functional.
For data set [29], the system named is KYSE-270. Description: Potency index, ratio of 5-fluorouracil IC50 to test compound IC50 for antiproliferative activity against human KYSE-270 cells assessed as inhibition of cell growth incubated for 72 hrs by MTT assay. It is filed as functional.
Data set [30] concerns KYSE-150 cell line. Description: Antiproliferative activity against human KYSE-150 cells assessed as inhibition of cell growth incubated for 72 hrs by MTT assay. It is filed as functional, cell-based. Particulars: KYSE-150, 72 h, pooled result: one value given for 5 cell lines, strains, targets or settings.
Data set [31] concerns KYSE-150 cell line. Description: Potency index, ratio of 5-fluorouracil IC50 to test compound IC50 for antiproliferative activity against human KYSE-150 cells assessed as inhibition of cell growth incubated for 72 hrs by MTT assay. It counts as functional.
The test system of data set [32] is ECa-109 cell line. Description: Antitumor activity against human EC109 cells xenografted in BALB/c nude mouse model assessed as inhibition of tumor growth at 60 mg/kg, po relative to control. It counts as functional.
The test system of data set [33] is MGC-803. Description: Antitumor activity against human MGC-803 cells xenografted in SCID mouse model assessed as inhibition of tumor growth at 50 mg/kg, po relative to control. It counts as functional.
For data set [34], the system named is A549. In words: Antiproliferative activity against human A549 cells assessed as inhibition of cell growth incubated for 48 hrs by MTT assay. It is filed as functional, cell-based. Particulars: A549, 48 h.
The subject of data set [35] is NCI-H460. Description: Antiproliferative activity against human NCI-H460 cells assessed as inhibition of cell growth incubated for 48 hrs by MTT assay. It is filed as functional, cell-based. Particulars: NCI-H460, 48 h.
The test system of data set [36] is A549. Description: Antitumor activity against human A549 cells xenografted in nude mouse model assessed as inhibition of tumor growth at 1.0 mg/kg, sc administered every three or four days for 4 weeks relative to control. It counts as functional. The settings on record: A549, 672 h.
The test system of data set [37] is A549. Description: Antiproliferative activity against human A549 cells assessed as inhibition of cell growth incubated for 72 hrs by MTT assay. It is filed as functional, cell-based. The settings on record: A549, 72 h.
For data set [38], the system named is A549/TR. In words: Antiproliferative activity against taxol-resistant human A549/Taxol cells assessed as inhibition of cell growth incubated for 72 hrs by MTT assay. It counts as functional, cell-based.
Data set [39] deals with A549. In words: Antitumor activity against human A549 cells xenografted in Kunming mouse model assessed as inhibition of tumor growth at 20 mg/kg, iv administered twice daily for 2 weeks relative to control. It is filed as functional. Particulars: A549, 336 h.
Data set [40] in a line: Antiproliferative activity against cisplatin-resistant human A549/DDP cells assessed as inhibition of cell growth incubated for 72 hrs by MTT assay. It is filed as functional, cell-based.
Data set [41] has as its system HCT-116. In words: Antiproliferative activity against human HCT-116 cells assessed as inhibition of cell growth incubated for 72 hrs by MTT assay. It counts as functional, cell-based. Particulars: HCT-116, 72 h.
The test system of data set [42] is U2OS. In words: Antiproliferative activity against human U2OS cells assessed as inhibition of cell growth incubated for 72 hrs by MTT assay. It is filed as functional, cell-based.

SMILES strings stand for the structures. A value given as a limit tells only on which side of the number the result lay.

As a reminder, the IC50 is the concentration needed to halve the response being measured. On to `O=S(=O)(NCc1cn(Cc2cccc(Oc3ccccc3)c2)nn1)c1ccc(F)cc1`, for which the IC50 in data set [1], in [3], in data set [4] and in data set [5] was 540 nM throughout. The inhibition in vivo at 100 mg/kg in data set [2] stood at 61.8%.
By clearance is commonly meant the volume of plasma or blood freed of the substance per unit of time. For orientation: AUC(0-t) means exposure summed from dosing to a finite time, without extrapolation to infinity. `CCN1CCN(Cc2ccc(Nc3ncc(F)c(-c4cc(F)c5nc(C)n(C(C)C)c5c4)n3)nc2)CC1` [ABEMACICLIB]: the half-life in data set [6] is 1 h. The 50% inhibitory concentration (IC50) in data set [7], in [8], in data set [12], in data set [13], in data set [14] and in data set [15] was 153 nM throughout. For the same molecule, the T/C in [9] worked out at 0.51. The molecule further had a clearance in data set [10] of 43 mL/min/kg. Moreover, the AUC(0-t) in [11] came to 487 ng·h/mL.
Turning to `C#Cc1cccc(Nc2ncnc3cc4c(cc23)OCCOCCOCCO4)c1` [ICOTINIB], the inhibition in vivo at 25 mg/kg in [16] worked out at 15%. For the same molecule, in [17], the IC50 is greater than 19200 nM.
`Cc1nnn(C)c1-c1cnc2c3ccc(C(C)(C)O)cc3n([C@H](c3ccccc3)C3CCOCC3)c2c1` [EZOBRESIB]: the values for the IC50 in [18] and in data set [19] were 4.97 nM and 6.57 nM, respectively.
The term GI50 denotes the concentration that inhibits growth by half. As for `CCn1c2ccccc2c2cc(-n3nncc3-c3ccccc3)ccc21` [MBQ-167], in data set [20], the IC50 was 103 nM. In addition, the values for the Activity in data set [21] and in data set [22] were 80% and 95%, respectively. Moreover, the GI50 in data set [23] is 130 nM.
In the case of `NS(=O)(=O)NCCNC(=O)c1n[nH]nc1-c1ccc(F)c(F)c1`, the IC50 in [24] turned out to be 77 nM. For the same molecule, the inhibition in vivo at 5 mg/kg in data set [25] is greater than 80%.
For `COc1cnc(Cn2cc(CNC(=O)c3c(F)c(F)c(F)c(F)c3F)nn2)c(OC)c1`, the “Ratio IC50” value in [26], in data set [27], in [28], in data set [29] and in [31] was 3.1 each time. Also, in [30], the IC50 came out at 830 nM. The inhibition in vivo at 60 mg/kg in data set [32] was 60%.
On to `COc1ccc(-n2cc(CN3c4ccccc4Sc4ccccc43)nn2)c([N+](=O)[O-])c1`, for which the inhibition in vivo at 50 mg/kg in [33] was determined as 70.1%.
With `COc1ccc2c(c1)OCC(=O)N2Cc1cn(Cc2ccccc2)nn1`, the IC50 in data set [34] and in data set [35] was less than 8000 nM each time. The inhibition in vivo at 1 mg/kg in [36] was determined as 60%.
For the molecule `CC(C)=CC[C@]12OC(C)(C)C3C[C@H](C=C4C(=O)c5c(OCc6cn(CCN7CCOCC7)nn6)cccc5OC431)C2=O`, the IC50 in data set [37], in data set [38], in [40], in [41] and in data set [42] was 280 nM throughout. The inhibition in vivo at 20 mg/kg in data set [39] came out at 71.3%.
